{
  "source": "paper PMC5007486",
  "about": "“Thermodynamic instability of viral proteins is a pathogen-associated molecular pattern targeted by human defensins” (Scientific Reports, 2016)",
  "molecules": {"B1": {"name": "HD-5: human enteric α-defensin HD-5, prepared by solid-phase peptide synthesis (peptide, UniProt Q01523 20-94, looked up)", "Defensin alpha 5": "ESLQERADEATTQKQSGEDNQDLAISFAGNGLSALRTSGSQARATCYCRTGRCATRESLSGVCEISGRLYRLCCR", "modifications": "Defensin-5", "notes": "human enteric α-defensin HD-5, prepared by solid-phase peptide synthesis"}},
  "key": {"TEV Protease [1]": {"tested_on": "TEV Protease", "type": "biochemical, tobacco etch virus (TEV)", "conditions": "disulfide bonds reduced with 10 mM TCEP, one hour pre-incubation at room temperature", "protocol": "TEV protease activity assay\nThe reactions were stopped by boiling in reducing sample buffer; proteolytic products were resolved on SDS-PAGE. For reducing condition experiments, the reaction buffer was supplemented with 10 mM tris(2-carboxyethyl)phosphine (TCEP) and the defensins were pre-incubated with 10 mM TCEP for one hour at room temperature before co-incubation with the TEV protease. Note, the ammonium salt of TCEP (Sigma #646547) used in this study has neutral pH (7.0). Care was taken to verify that the final pH of the working solutions was not changed after the addition of TCEP."}, "TEV Protease [2]": {"tested_on": "TEV Protease", "type": "binding, tobacco etch virus (TEV)", "conditions": "DSF", "from_the_text": "(§1) Differential scanning fluorimetry (DSF)"}, "gp41 [3]": {"tested_on": "gp41", "conditions": "cited from earlier work"}, "HIV-1 IN [4]": {"tested_on": "HIV-1 IN", "conditions": "HTRF; IN 400 nM; defensin 1–10 μM, 30 min room temperature; strand transfer three hours 37 °C, pH 7.5", "experimental": "Homogenous time-resolved fluorescence (HTRF)-based integration activity assay\nTo test the HIV-1 integrase (IN) activity in the presence and absence of defensins, previously developed HTRF technique[41][42] was used with some modifications. […] Following the incubation with the defensins, a 5′-Cy5-labelled 21-mer viral donor DNA (200 nM) and 3′-biotinylated target DNA (20 nM) were added to the reaction. […] 0.5 M NaCl (final concentration in the development solution) allows dissociating of all DNA from IN to prevent FRET signal from non-covalently associated donor and target DNA. Following an overnight incubation at 4 °C, the HTRF signal was recorded with an EnSpire multimode plate reader (PerkinElmer)."}, "TEV Protease [5]": {"tested_on": "TEV Protease", "design": "species or system tobacco etch virus (TEV)", "conditions": "10 μM protein; HNP-1 20 and 50 μM or RC-101 30 and 60 μM; 30 min, […] °C, pH 7.5, 100 mM NaCl; 280,000 g, SDS-PAGE", "experimental": "Precipitation of HIV-1 MA, HIV-1 CA, and TEV protease was assessed by differential ultracentrifugation. […] All samples were centrifuged using TLA-100 rotor in Optima TL-100 ultracentrifuge (Beckman Coulter) at 280,000 g for 30 min at 4 °C. The supernatant (soluble) and pellet (precipitated) fractions were collected, supplemented with 1/3rd of the volume of 4x reducing sample buffer (200 mM Tris, pH 6.8, 40% glycerol, 8% SDS, 400 mM β-mercaptoethanol, 0.4% bromophenol blue), pellets resuspended, and samples resolved on SDS-PAGE."}, "PFV IN [6]": {"tested_on": "PFV IN", "design": "species or system prototype foamy virus (PFV)", "conditions": "5 μM PFV IN, 3-fold molar excess HNP-1, chymotrypsin (1:100 w/w) or thermolysin (1:200 w/w), 37 °C, 20 mM HEPES pH 7.5, 100 mM NaCl, 5 mM CaCl2, SDS-PAGE", "protocol": "Limited proteolysis was conducted as described previously. […] The protein samples were resolved on SDS-PAGE."}, "gp41 [7]": {"tested_on": "gp41", "conditions": "cited from earlier work", "remark": "listed apart in the source"}, "HIV-1 CA [8]": {"tested_on": "HIV-1 CA", "conditions": "10 μM CA, 3-fold molar excess HNP-1, chymotrypsin (1:100 w/w) or thermolysin (1:200 w/w), 37 °C, 20 mM HEPES pH 7.5, 100 mM NaCl, 5 mM CaCl2, SDS-PAGE", "experimental": "(§3) Briefly, viral proteins (5–10 μM) were mixed with 3-fold molar excess of HNP-1 (i.e. 15–30 μM) in a 20 mM HEPES buffer (pH 7.5) supplemented with 100 mM NaCl and 5 mM CaCl2. […] The reactions were stopped by adding reducing sample buffer (50 mM Tris, pH 6.8, 10% glycerol, 2% sodium dodecyl sulfate (SDS), 100 mM β-mercaptoethanol, 0.1% bromophenol blue) supplemented with 2 mM phenylmethylsulfonyl fluoride (PMSF) and 10 mM ethylenediaminetetraacetic acid (EDTA) and boiling for 5 min. The protein samples were resolved on SDS-PAGE."}, "HIV-1 MA": {"tested_on": "HIV-1 MA", "conditions": "10 μM MA, 3-fold molar excess HNP-1, chymotrypsin (1:100 w/w) or thermolysin (1:200 w/w), 37 °C, 20 mM HEPES pH 7.5, 100 mM NaCl, 5 mM CaCl2, SDS-PAGE", "experimental": "as §3"}, "HIV-1": {"tested_on": "HIV-1", "conditions": "cited from earlier work"}, "HSV": {"tested_on": "HSV", "design": "method as in PMID 17142766", "conditions": "cited from earlier work"}, "dengue virus DENV-2": {"tested_on": "dengue virus DENV-2", "design": "method as in PMID 23171075", "conditions": "activity greatly increased with elevated temperature; cited from earlier work"}, "[9]": {"tested_on": "gp41-derived peptide mixture of N36/C34", "design": "method as in PMID 16648135", "conditions": "cited from earlier work"}, "serine protease": {"tested_on": "serine protease", "design": "method as in PMID 23171075", "conditions": "greatly increased with elevated temperature; cited from earlier work"}, "chemokine receptor CCR6": {"tested_on": "chemokine receptor CCR6", "design": "method as in PMID 12840147", "conditions": "binding and activation of CCR6; cited from earlier work"}, "[10]": {"conditions": "cited from earlier work", "from_the_text": "(§2) Three characteristic disulfide bonds stabilize the defensins’ structure and are essential for some, but not all functions of the peptides. […] This is likely because the preserved defensin structure is required in the later case, when the cell wall synthesis machinery is targeted, but not in the former case, when defensins directly affect membranes of Gram-negative bacteria. In contrast, reduction of disulfi ..."}, "HIV-1 IN [11]": {"tested_on": "HIV-1 IN", "conditions": "DSF, 5-fold molar excess of cyclotide", "experimental": "(§4) Viral protein samples (5–20 μM) in a 20 mM 4-(2-hydroxyethyl)-1-piperazineethanesulfonic acid (HEPES) buffer (pH 7.5) supplemented with 150 mM NaCl and 1x SYPRO Orange dye (Invitrogen) were subjected to temperature denaturation in the absence or presence of defensins. […] Temperature melting profiles were acquired with a CFX96 Touch Real-Time PCR Detection System (Bio-Rad). Melting temperatures for proteins alone and in the presence of different defensins were calculated as described previously[76]."}, "HIV-1 Gag-Δp6": {"tested_on": "HIV-1 Gag-Δp6", "conditions": "DSF, 5-fold molar excess of cyclotide", "experimental": "as §4"}, "PFV IN [12]": {"tested_on": "PFV IN", "type": "binding, prototype foamy virus (PFV)", "conditions": "DSF, 5-fold molar excess of cyclotide", "from_the_text": "as §1"}, "[13]": {"tested_on": "Actin Crosslinking Domain (ACD)", "type": "binding, Vibrio cholerae", "conditions": "5-molar excess of peptide to the toxin"}, "HIV-1 CA [14]": {"tested_on": "HIV-1 CA", "conditions": "DSF, 5-fold molar excess of cyclotide", "experimental": "as §4"}, "[15]": {"tested_on": "Gram-negative and Gram-positive bacteria", "conditions": "reduction of disulfide bonds; cited from earlier work", "from_the_text": "as §2"}, "Ad5.F35 capsid": {"tested_on": "Ad5.F35 capsid", "conditions": "CryoEM; with signs of local disorganization of hexon, penton base, fiber; cited from earlier work", "from_the_text": "It is likely that the potent destabilizing effects imposed by defensins are pertinent at numerous physiological occasions and particularly upon dynamic structural transitions in the course of capsid assembly, uncoating, and membrane fusion. Yet, we are far from proposing that the destabilization of purified viral proteins by defensins observed in vitro accurately represents the complexity of physiological conditions including, but not limited to, interactions of viral proteins with each other, viral nucleic acids, and host proteins. Thus, in apparent contradiction with our resu ..."}},
  "note": "Where no end group is shown, it is not given here.",
  "data": [
    {"molecule": "HNP-1: human neutrophil α-defensin peptide HNP-1, prepared by solid-phase peptide synthesis", "values": [
      {"measurement": "Ability to inhibit proteolytic activity of TEV protease, reducing conditions", "setting": "TEV Protease [1]", "result": "complete loss"},
      {"measurement": "Ability to promote unfolding of TEV protease, reducing conditions", "setting": "TEV Protease [2]; disulfide bonds reduced with 10 mM TCEP", "result": "complete loss"},
      {"measurement": "Refolding of gp41 into 6-helix bundle", "setting": "gp41 [3]", "result": "impaired refolding of gp41 into the 6-helix bundle structure triggering their aggregation"},
      {"measurement": "Strand transfer activity of HIV-1 IN", "setting": "HIV-1 IN [4]", "result": "inhibited the strand transfer activity of IN"},
      {"measurement": "Precipitation of TEV protease", "setting": "TEV Protease [5]", "result": "dose-dependent precipitation"},
      {"measurement": "Detectable amounts of cleaved products of PFV IN", "setting": "PFV IN [6]", "result": "drastic reduction in the detectable amounts of cleaved products"},
      {"measurement": "Refolding lifetime of gp41 intermediates in pre-hairpin conformation", "setting": "gp41 [7]", "result": "prolong refolding lifetime of gp41 intermediates in pre-hairpin conformation"},
      {"measurement": "Detectable amounts of cleaved products of HIV-1 CA", "setting": "HIV-1 CA [8]", "result": "drastic reduction in the detectable amounts of cleaved products"},
      {"measurement": "Detectable amounts of cleaved products of HIV-1 MA", "setting": "HIV-1 MA", "result": "drastic reduction in the detectable amounts of cleaved products"},
      {"measurement": "HIV-1 infection", "setting": "HIV-1", "result": "inhibit HIV-1 and HSV infections at multiple steps"},
      {"measurement": "HSV infection", "setting": "HSV", "result": "inhibit HIV-1 and HSV infections at multiple steps"}
    ]},
    {"molecule": "retrocyclin-1 [RC-1]", "values": [
      {"measurement": "Dengue virus DENV-2 replication", "setting": "dengue virus DENV-2", "result": "inhibits dengue virus DENV-2 replication"},
      {"measurement": "Circular dichroism spectrum of N36/C34", "setting": "[9]", "result": "transformed into a random coil-like spectrum"},
      {"measurement": "Refolding of gp41 into 6-helix bundle", "setting": "gp41 [3]", "result": "impaired refolding of gp41 into the 6-helix bundle structure triggering their aggregation"},
      {"measurement": "DENV-2 serine protease activity", "setting": "serine protease", "result": "interfering with the activity of its serine protease"}
    ]},
    {"molecule": "hBD-3: human beta-defensin 3 (GIINTLQKYYCRVRGGRCAVLSCLPKEEQIGKCSTRGRKCCRRKK; ends and bridges not checked; cysteine pairing not given here; UniProt P81534 23-67, looked up)", "values": [
      {"measurement": "Need of disulfide bonds for chemotactic activity", "setting": "chemokine receptor CCR6", "result": "required for its chemotactic activity"},
      {"measurement": "Need of disulfide bonds for antimicrobial activity", "setting": "[10]", "result": "dispensable for its antimicrobial activity"}
    ]},
    {"molecule": "kalata B1 [kB1]", "values": [
      {"measurement": "Ability to potentiate unfolding of HIV-1 IN", "setting": "HIV-1 IN [11]", "result": "none of the four cyclotides used in this study (cyO2, cyO19, kB1, and kB7) demonstrated an ability to potentiate unfolding"},
      {"measurement": "Ability to potentiate unfolding of HIV-1 Gag-Δp6", "setting": "HIV-1 Gag-Δp6", "result": "none of the four cyclotides used in this study (cyO2, cyO19, kB1, and kB7) demonstrated an ability to potentiate unfolding"},
      {"measurement": "Ability to potentiate unfolding of PFV IN", "setting": "PFV IN [12]", "result": "none of the four cyclotides used in this study (cyO2, cyO19, kB1, and kB7) demonstrated an ability to potentiate unfolding"},
      {"measurement": "Ability to potentiate unfolding of TEV protease", "setting": "TEV Protease [2]; 5-fold molar excess of cyclotide", "result": "none of the four cyclotides used in this study (cyO2, cyO19, kB1, and kB7) demonstrated an ability to potentiate unfolding"},
      {"measurement": "Unfolding / DSF thermal denaturation profile of ACD toxin", "setting": "[13]", "result": "none of the four cyclotides used in this study (cyO2, cyO19, kB1, and kB7) demonstrated an ability to potentiate unfolding"},
      {"measurement": "Ability to potentiate unfolding of HIV-1 CA", "setting": "HIV-1 CA [14]", "result": "none of the four cyclotides used in this study (cyO2, cyO19, kB1, and kB7) demonstrated an ability to potentiate unfolding"}
    ]},
    {"molecule": "hBD-1: human β-defensin hBD-1, prepared by solid-phase peptide synthesis (DHYNCVSSGGQCLYSACPIFTKIQGTCYRGKAKCCK; ends and bridges not checked; cysteine pairing not given here; UniProt P60022 33-68, looked up)", "values": [
      {"measurement": "Effect on thermal melting of TEV protease, reducing conditions", "setting": "TEV Protease [2]; reduced β-defensin, 10 mM TCEP", "result": "had no effect on thermal melting"},
      {"measurement": "Effect of disulfide reduction on antimicrobial activity", "setting": "[15]", "result": "activates hBD-1 antimicrobial activity against both Gram-negative and Gram-positive bacteria"}
    ]},
    {"molecule": "B1", "values": [
      {"measurement": "Stability of Ad5.F35 capsid", "setting": "Ad5.F35 capsid", "result": "overall stabilization of Ad5.F35 capsid"}
    ]}
  ]
}
